Measured values reported in patent US20220062247A1, “USE OF A PAR-1 ANTAGONIST FOR THE TREATMENT OF A CHRONIC INFLAMMATORY INTESTINAL DISEASE” (CVASTHERA, priority 2018, published 2022).

Legend:
[1] = test system: inflammatory bowel disease, Dextran Sulphate sodium (DSS); experiment: Dextran Sulphate sodium (DSS) model of inflammatory bowel disease in mice (body weight, DAI, macroscopic damage score, MPO); type: in vivo, mice (C57B16); set-up: Disease activity index, D1 / Disease activity index, D2 / Disease activity index, D3 / Disease activity index, D4 / Disease activity index, D5 / Disease activity index, D6 / Disease activity index, D7 / macroscopic damage score: scale not given here
Description: The purpose of this study is to assess the effectiveness of a PAR-1 antagonist according to the invention, 3-2-(chloro-phenyl)-1-[4-(4-fluoro-benzyl)-piperazine-1-yl]propenone (CSI) in a model of an inflammatory bowel disease, Dextran Sulphate sodium (DSS) in mice. This DSS model is described in the publication of Choi et al., 2010, in J. Biomed. Biotechnol., 2010:943516; doi: 10.1155/2010/943516.
This model features a cytokine profile Th1 in its acute phase, periods of remission and relapses, it is consequently very similar to ulcerous colitis. The DSS distributed in the drinking water can cause an inflammation of the digestive tract and produce colorectal tumours in the rodent. The DSS is widely used as an animal model of human inflammatory diseases of the digestive tract.
The present study is conducted in 7-week-old mice (C57B16). The 5-aminosalicylic acid serves as a positive comparative example.
The first day of the study starts with the daily administration of a beverage containing DSS at 5% p/p in water to the mice, until the day of sacrifice. The development of the disease is estimated on a daily basis, with accurate weighting of the mice, the assessment of the consistence of the excrements as well as the presence of blood in the faeces with the Hemoccult® paper test. The DAI score is calculated as indicated in Example 1.
Each day, groups of mice receive per os CSI at different concentrations, or 5-aminosalicylic acid (5-ASA), or the vehicle alone, that is to say carboxymethyl cellulose (CMC) at 1%.
The mice are sacrificed 7 days after the beginning of the treatment. The colon is excised and the macroscopic damages are assessed. The colon is then cut into 4 pieces, the distal portion is placed in an Eppendorf tube and stored at −80° C. until the measurement of the activity of myeloperoxidase and the quantification of proteins. The proximal portion is kept in formaline at 10% for future histological analyses. The two other central portions are placed in Eppendorf tubes and stored at −80° C. for future analyses.
On day 7, after having sacrificed the animals, the colon is removed. The macroscopic damage score, assessed as described in Example 1, and the myeloperoxidase (MPO) activity are determined.

[2] = test system: inflammatory bowel disease induced by 2,4,6-trinitrobenzenesulfonic acid (TNBS); experiment: Colitis induced by intra-colonical TNBS in rats (body weight, DAI score, colon wall thickness, macroscopic damage score, MPO); type: in vivo, male laboratory rat of the Wistar strain
Description: The purpose of this study is to assess the effectiveness of two PAR-1 antagonists, vorapaxar and 3-2-(chloro-phenyl)-1-[4-(4-fluoro-benzyl)-piperazine-1-yl]propenone (hereinafter, referred to as CSI) in a model of an inflammatory bowel disease induced by 2,4,6-trinitrobenzenesulfonic acid (TNBS) in a male laboratory rat of the Wistar strain. This model is described in the publication of Whittle et al., 2003, in Methods Mol. Biol., 225, 209-222.
In this induced colitis model, the inflammatory reaction is measured every day and is well established 7 days after intra-colonical administration of TNBS.
(§1) Different parameters are measured: the weight of the rats, the presence of blood in the faeces and the diarrhoeas assessed by the disease activity index (DAI score), the intensity of pain (assessed by Von Frey filaments technique measured on days 3 and 7).
The rats are sacrificed 7 days after the beginning of the treatment and the macroscopic damages, the oedema and a marker of the inflammation, myeloperoxidase (MPO), are quantified.
The experiments with the PAR-1 antagonists are carried out in two studies, relating to vorapaxar and CSI, respectively.
The colitis is induced by intra-colonical administration of 2,4,6-trinitrobenzenesulfonic acid (TNBS) (30 mg of TNBS in 0.25 ml of a 50% ethanol/NaCl solution) via a catheter (polyethylene (PE)-60) inserted 8 cm proximally from the anus.
Four groups of 10 rats receive an intra-colonical administration of TNBS, as well as a per os treatment of vorapaxar at the dose of 2.5 mg/kg/day or of CSI at doses of 10 and 40 mg/kg/day or of prednisolone (a compound proposed by the prior art for the treatment of IBDs) at the dose of 3 mg/kg/day. The per os treatments start 1 h before the intra-colonical administration of TNBS.
As a negative comparative example, 1 group of 10 rats receives an intra-colonical administration of TNBS and of the vorapaxar vehicle (phosphate buffered saline—PBS) or of the CSI vehicle (carboxymethyl cellulose—CMC at 1%) per os daily.
Moreover, 1 group of 6 control rats receives an intra-colonical administration of NaCl instead of TNBS.
The DAI score is determined as follows. The development of the disease is estimated on a daily basis. The consistence of the excrements, as well as the presence of blood in the faeces assessed with the Hemoccult® paper test, are respectively quantified by the seriousness scales of Table 3 hereinbelow. The obtained values are added together to obtain the DAI score.
The macroscopic damage score is assessed according to the protocol described in the publication of Comera et al., 1999, Dig. Dis. Sci. 44: 1448-1457, as follows. On day 7 after induction of the colitis, the rats are sacrificed by carbon dioxide CO2 inhalation, the colon (from the anus to the Caecum) is removed and the macroscopic damages are assessed according to the parameters observed and presented in Table 4 hereinbelow, to determine the macroscopic damage score.

[3] = test system: nociceptive response induced by TNBS; experiment: Nociceptive response (allodynia) by Von Frey filaments technique in TNBS colitis rats; type: in vivo, rat; settings: 3 mg/kg/day, 7 days after colitis induction
Protocol: as §1
The intensity of the pain is measured by the Von Frey filaments technique on days […], according to the protocol described in the publication of Auge et al., 2013, Eur. J. Pharmacol. 707: 32-40.
The effect on the nociceptive response, measured by Von Frey filaments technique according to the mass of Von Frey filaments, is shown in FIG. 10 for prednisolone and in FIG. 11 for vorapaxar.

[4] = DSS 5%, Group 5, 50 mg/kg/24 h per os, Moy
[5] = DSS mice, 50 mg/kg daily oral (Group 5), all observed points
[6] = DSS 5%, Group 2, 10 mg/kg/24 h per os, Moy
[7] = DSS 5%, Group 3, 40 mg/kg/24 h per os, Moy

Compound: Nc1ccc(O)c(C(=O)O)c1 [5-ASA, 5-aminosalicylic acid, reference compound]
- Disease activity index, D1 [1, 4]: 1.64
- Disease activity index, D2 [1, 4]: 1.25
- Disease activity index, D3 [1, 4]: 1.92
- Disease activity index, D4 [1, 4]: 3.50
- Disease activity index, D5 [1, 4]: 4.00
- Disease activity index, D6 [1, 4]: 4.00
- Disease activity index, D7 [1, 4]: 3.20
- Variation of the body weight of the mice in comparison with day D0, D1-D0 [1, 4]: 0.64 g
- Variation of the body weight of the mice in comparison with day D0, D2-D0 [1, 4]: 0.64 g
- Variation of the body weight of the mice in comparison with day D0, D3-D0 [1, 4]: 1.05 g
- Variation of the body weight of the mice in comparison with day D0, D4-D0 [1, 4]: -0.03 g
- Variation of the body weight of the mice in comparison with day D0, D5-D0 [1, 4]: -1.67 g
- Variation of the body weight of the mice in comparison with day D0, D6-D0 [1, 4]: -3.68 g
- Variation of the body weight of the mice in comparison with day D0, D7-D0 [1, 4]: -4.76 g
- macroscopic damage score ([1]; DSS 5%, Group 5, 50 mg/kg/24 h per os, day 7, Moy): 6.5
- MPO activity ([1]; DSS 5%, Group 5, 50 mg/kg/24 h per os, day 7, colon, Moy): 9.34 mU/mg proteins
- macroscopic damage score ([1]; DSS mice, 50 mg/kg (Group 5), vs vehicle group (Group 4)): significantly reduces
- increase of the disease activity index [1, 5]: prevents neither
- weight loss [1, 5]: prevents neither

Compound: C[C@]12C=CC(=O)C=C1CC[C@@H]1[C@@H]2[C@@H](O)C[C@@]2(C)[C@H]1CC[C@]2(O)C(=O)CO [prednisolone]
- apparition of oedema (thickness of the wall of the colon) ([2]; 3 mg/kg daily oral, 7 days): does not prevent
- disease activity index (DAI) ([2]; 3 mg/kg daily oral, all observed points): does not prevent the increase
- macroscopic damage score ([2]; 3 mg/kg, day 7, vs vehicle group): significantly reduces
- weight loss (body weight) ([2]; 3 mg/kg/day per os): alleviate
- MPO activity ([2]; 3 mg/kg/day, day 7, vs vehicle group): significantly reduce
- allodynia-type response (Von Frey) [3]: only a partial inhibition

Compound: O=C(/C=C/c1ccccc1Cl)N1CCN(Cc2ccc(F)cc2)CC1 [CSI, 3-2-(chloro-phenyl)-1-[4-(4-fluoro-benzyl)-piperazine-1-yl]propenone]
- disease activity index (DAI) ([2]; 10 mg/kg daily, 7th day): significantly reduces
- MPO activity ([2]; 40 mg/kg/day, day 7): significantly reduced
- macroscopic damage score ([2]; 10 and 40 mg/kg/day (tested doses), day 7, vs vehicle group): significantly reduces
- weight loss (body weight) ([2]; 10 or 40 mg/kg/day per os): alleviate
- Disease activity index, D1 [1, 6]: 1.40
- Disease activity index, D2 [1, 6]: 1.35
- Disease activity index, D3 [1, 6]: 2.00
- Disease activity index, D4 [1, 6]: 3.75
- Disease activity index, D5 [1, 6]: 4.00
- Disease activity index, D6 [1, 6]: 4.00
- Disease activity index, D7 [1, 6]: 2.90
- Variation of the body weight of the mice in comparison with day D0, D1-D0 [1, 6]: 0.67 g
- Variation of the body weight of the mice in comparison with day D0, D2-D0 [1, 6]: 0.44 g
- Variation of the body weight of the mice in comparison with day D0, D3-D0 [1, 6]: 0.45 g
- Variation of the body weight of the mice in comparison with day D0, D4-D0 [1, 6]: -0.42 g
- Variation of the body weight of the mice in comparison with day D0, D5-D0 [1, 6]: -2.15 g
- Variation of the body weight of the mice in comparison with day D0, D6-D0 [1, 6]: -3.79 g
- Variation of the body weight of the mice in comparison with day D0, D7-D0 [1, 6]: -5.19 g
- macroscopic damage score ([1]; DSS 5%, Group 2, 10 mg/kg/24 h per os, day 7, Moy): 5.2
- MPO activity ([1]; DSS 5%, Group 2, 10 mg/kg/24 h per os, day 7, colon, Moy): 12.99 mU/mg proteins
- Disease activity index, D1 [1, 7]: 2.00
- Disease activity index, D2 [1, 7]: 1.10
- Disease activity index, D3 [1, 7]: 1.50
- Disease activity index, D4 [1, 7]: 2.80
- Disease activity index, D5 [1, 7]: 4.00
- Disease activity index, D6 [1, 7]: 4.00
- Disease activity index, D7 [1, 7]: 3.00
- Variation of the body weight of the mice in comparison with day D0, D1-D0 [1, 7]: -0.08 g
- Variation of the body weight of the mice in comparison with day D0, D2-D0 [1, 7]: -0.07 g
- Variation of the body weight of the mice in comparison with day D0, D3-D0 [1, 7]: -0.19 g
- Variation of the body weight of the mice in comparison with day D0, D4-D0 [1, 7]: -0.68 g
- Variation of the body weight of the mice in comparison with day D0, D5-D0 [1, 7]: -1.07 g
- Variation of the body weight of the mice in comparison with day D0, D6-D0 [1, 7]: -2.69 g
- Variation of the body weight of the mice in comparison with day D0, D7-D0 [1, 7]: -4.00 g
- macroscopic damage score ([1]; DSS 5%, Group 3, 40 mg/kg/24 h per os, day 7, Moy): 4.0
- MPO activity ([1]; DSS 5%, Group 3, 40 mg/kg/24 h per os, day 7, colon, Moy): 6.9 mU/mg proteins
- disease activity index ([1]; DSS mice, 10 mg/kg daily (Group 2), 7th day): significantly reduces
- MPO activity ([1]; DSS mice, 40 mg/kg (Group 3)): strongly reduced
- disease activity index ([1]; DSS mice, 40 mg/kg (Group 3), 4th and 7th day, vs vehicle group (Group 4)): significantly reduced
- weight loss ([1]; DSS mice, 40 mg/kg (Group 3), 6th day): significantly reduces
- daily signs of colitis ([1]; DSS mice, 10 and 40 mg/kg, seems more effective than 5-ASA): reduces, significantly and in a dose-dependent way
- macroscopic damage score ([1]; DSS mice, both tested doses 10 and 40 mg/kg (Groups 2 and 3), vs vehicle group (Group 4)): significantly reduces
